The values below come from patent publication US20230077896A1, “MICROBIAL LIPID PRODUCTION UTILIZING POST-FERMENTATION INDUSTRIAL WASTE STREAM FEEDSTOCKS” (C16 Biosciences, Inc., priority 2020, published 2023).

Read-outs that look alike come from different tables or passages of the source.

In assay [1] the test system is Pantoea agglomerans. To be noted: at concentrations of 10 ppm, single inhibitor; cited from earlier work.
The subject of assay [2] is microorganism growth. To be noted: tens of micromolar, e.g.; cited from earlier work.
Assay [3] relates to Fusarium avenaceum. To be noted: cited from earlier work.
The test system of assay [4] is Rhodosporidium toruloides. To be noted: Hu et al. 2009; cited from earlier work.
Assay [5] relates to Y. lipolytica strain poll g. Put plainly: 4-hydroxybenzaldehyde spike-in titration in YPG media, Y. lipolytica. The format is cell-based, Yarrowia lipolytica. To be noted: concentrations tested 1 μM-100 mM.
In assay [6] the test system is R. toruloides strain A. Description: 4-hydroxybenzaldehyde spike-in titration in YPG media, R. toruloides. Format: cell-based, Rhodosporidium toruloides.
For assay [7], the system named is Trichosporon cutaneuin. To be noted: Wang et al. 2016; cited from earlier work.
The subject of assay [8] is Trichophyton rubrum. To be noted: Kamp et al., Mycoses 2005; cited from earlier work.
For assay [9], the system named is ethanol-producing yeast and bacteria. To be noted: as low as; cited from earlier work.
The subject of assay [10] is Aspergillus fumigatus. To be noted: Ryan et al. 2011; cited from earlier work.
In assay [11] the test system is Pseudoperonospora cubensis. To be noted: Zhu et al. 2018; cited from earlier work.
Assay [12] relates to S. cerevisiae. To be noted: cited from earlier work.
Assay [13] has as its system S. cerevisiae. Description: Inhibition of ethanol production by S. cerevisiae (Banergee et al.). To be noted: molar conversion in parentheses. Format: cell-based, Saccharomyces cerevisiae. The method, then: In some embodiments, the feedstock comprises furfural. Furfural is also known as furan-2-carboxaldehyde, feral, furfuraldehyde, 2-furaldehyde, and pyromucic aldehyde. Within the art, furfural is a well-known and potent inhibitor of microbial fermentation. […] See also, Sitepu et al., “Carbon source utilization and inhibitor tolerance of 45 oleaginous yeast species,” J Ind Microbiol Biotechnol 2014;41(7):1061-1070. In some embodiments, the feedstock comprises at least 10 μM, 20 μM, 30 μM, 40 μM, 50 μM, 60 μM, 70 μM, 80 μM, 90 μM, 100 μM, 200 μM, 300 μM, 400 μM, 500 μM, 600 μM, 700 μM, 800 μM, 900 μM, 1 mM, 2 mM, 3 mM, 4 mM, 5 mM, 6 mM, 7 mM, 8 mM, 9 mM, 10 mM, 20 mM, 30 mM, 40 mM, 50 mM, 60 mM, 70 mM, 80 mM, 90 mM, or 100 mM furfural, or any ranges or subranges therebetween. In some embodiments, the feedstock comprises at least 10 μM furfural.

Assay [14] has as its system R. toruloides strain A, R. toruloides strain B. Put plainly: Batch fermentation with glycerol supplement, R. toruloides. To be noted: 50 g/L glycerol added to 30% corn stillage syrup feedstock, 6 days. The format is cell-based, Rhodosporidium toruloides. The source says:
(§1) For the purposes of this example, the exemplary feedstock employed was a 30% corn stillage syrup-based feedstock, comprising 30% v/v corn stillage syrup, with insoluble components removed via centrifugation, diluted in deionized water.
(§2) Four strains of oleaginous microorganisms were selected to investigate the potential of the exemplary feedstock to support the growth of oleaginous microorganisms: R. toruloides strain A, R. toruloides strain B, Y. lipolytica strain po 1 g, and L. starkeyi strain CBS 1807. As a control, a canonical non-oleaginous yeast, P. pastoris strain X33, was included for comparison.
(§3) Fermentations were run in batch format for 6 days. Dry cell weight, oil titer and lipid content were evaluated as described in Example 5.
(§4) 50 g/L glycerol was added to the feedstock and fermentations were again run for 6 days. Dry cell weight and oil titer were evaluated and compared to the results of the batch fermentation.

In assay [15] the test system is L. starkeyi strain CBS 1807. Description: Batch fermentation with glycerol supplement, L. starkeyi. To be noted: 50 g/L glycerol added to 30% corn stillage syrup feedstock, 6 days. The format is cell-based, Lipomyces starkeyi.
Text: as §1, §2, §3, §4

Assay [16] has as its system Y. lipolytica strain po 1 g. Description: Batch fermentation with glycerol supplement, Y. lipolytica. The format is cell-based, Yarrowia lipolytica. To be noted: 50 g/L glycerol added to 30% corn stillage syrup feedstock, 6 days.
Text: as §1, §2, §3, §4

The subject of assay [17] is Saccharomyces cerevisiae. To be noted: concentrations in the mM range; cited from earlier work.
Assay [18] concerns Eutypa lata. To be noted: as low as; lowered growth rate even after renewal of culture medium; cited from earlier work.

Regarding `CC1(O)CCOC(=O)C1` (racemic) [mevalonic acid lactone, 4-Hydroxy-4-methyltetrahydro-2H-pyran-2-one], in assay [1], the “inhibition of growth of Pantoea agglomerans” value is 10-15%. Also, the “concentration at which it can act as an inhibitor for microorganism growth” value in assay [2] was 67 µM. Moreover, the “growth of Fusarium avenaceum” value in assay [3] is “inhibit the growth”.

Regarding `O=Cc1ccc(O)cc1` [4-hydroxybenzaldehyde], the “concentration showing inhibition of Rhodosporidium toruloides” value in assay [4] is listed as 9 mM. Further, the “effect on growth of the Y. lipolytica strain” value in assay [5] was “no statistically significant effect”. In addition, the “effect on oil production of the Y. lipolytica strain” value in assay [5] is on record as “no statistically significant effect”. For the same compound, the “increase in oil titer as compared to the no inhibitor control” value in assay [6] (100 μM condition) and in assay [6] (10 mM condition) was “over 50%” throughout. Moreover, the “growth (DCW) of the R. toruloides strain” value in [6] (100 mM inhibitor in YPG media) is recorded as “inhibited altogether”; in assay [6] (all concentrations tested (1 μM-10 mM) except 100 mM, YPG media, vs no inhibitor control) it was “unaffected”. Besides, the “effect on oil titer of R. toruloides” value in assay [6] (increasing concentrations between 1 μM and 10 mM) is on record as “lipogenic effect”. In addition, the “concentration showing inhibition of Trichosporon cutaneum” value in [7] was 16 mM.

Consider `NCC(=O)CCC(=O)O` [5-aminolevulinic acid], for which the “concentration showing inhibition of Trichophyton rubrum” value in assay [8] was “above 10 mM”.

On to `O=Cc1ccc(CO)o1` [HMF, 5-(hydroxymethyl)furfural], for which the “concentration of significant inhibition of growth and ethanol production” value in assay [9] is 8 mM.

On to `O=C(O)C(O)Cc1ccc(O)cc1` (centres unmarked) [Hydroxyphenyllactic acid, 2-Hydroxy-3-(p-hydroxyphenyl)propionic acid], for which, in [10], the inhibitory concentration was 5 mg/mL.

Consider `O=C1CC[C@@H](C(=O)O)N1` [Pyroglutamic acid], for which the “inhibitor of fungal species” value in [11] is on record as “known inhibitor”.

In the case of `O=Cc1ccco1` [furfural], the “concentration inhibiting ethanol production” value in assay [12] (as low as) is reported as 0.5 g/L; in [13] (as low as), around 10 mM. Besides, the “concentration of complete inhibition of ethanol production” value in assay [12] (complete inhibition) was 4 g/L; in assay [13] (complete inhibition), around 40 mM.

Turning to `OCC(O)CO` [glycerol], in assay [14], the “growth (DCW) with added glycerol vs without” value was “dramatically increased” and the “oil production with added glycerol vs without” value was “dramatically increased”. For the same compound, in [15], the “growth (DCW) with added glycerol” value was “significantly less growth” and the “oil titer with added glycerol” value was “only marginally improved”. Moreover, in [16], the “growth (DCW) with added glycerol” value was “significantly less growth” and the “oil titer with added glycerol” value was “only marginally improved”.

For `O=C(O)c1ccccc1O` [salicylic acid], the “effects against Saccharomyces cerevisiae” value in assay [17] was “fungicidal effects”. The “concentration causing fungistatic effects in Eutypa lata” value in assay [18] is recorded as 1 mM. The inhibitory concentration in [10] is on record as 0.25 mg/mL.
